Assay results reported in patent US20250263376A1, “(E)-N-CINNAMOYLAMINOALKANOLS WITH MELANOGENESIS INHIBITORY ACTIVITY” (Uniwersytet Jagiellonski, priority 2024, published 2025).

Columns and labels:
[1] = molecular target: T1, tyrosinase released from B16-F10 cells (Mus musculus, UniProt P11344); assay: Inhibition of tyrosinase activity released from B16-F10 cells; assay type: cell-based, murine; conditions: 24 h incubation, α-MSH, L-DOPA 0.5 mM
T1 construct: endogenous in cells; host or cells: B16-F10 murine melanoma cells (alpha-MSH stimulated), Triton X-100 lysate
T1 sequence (P11344 19-533): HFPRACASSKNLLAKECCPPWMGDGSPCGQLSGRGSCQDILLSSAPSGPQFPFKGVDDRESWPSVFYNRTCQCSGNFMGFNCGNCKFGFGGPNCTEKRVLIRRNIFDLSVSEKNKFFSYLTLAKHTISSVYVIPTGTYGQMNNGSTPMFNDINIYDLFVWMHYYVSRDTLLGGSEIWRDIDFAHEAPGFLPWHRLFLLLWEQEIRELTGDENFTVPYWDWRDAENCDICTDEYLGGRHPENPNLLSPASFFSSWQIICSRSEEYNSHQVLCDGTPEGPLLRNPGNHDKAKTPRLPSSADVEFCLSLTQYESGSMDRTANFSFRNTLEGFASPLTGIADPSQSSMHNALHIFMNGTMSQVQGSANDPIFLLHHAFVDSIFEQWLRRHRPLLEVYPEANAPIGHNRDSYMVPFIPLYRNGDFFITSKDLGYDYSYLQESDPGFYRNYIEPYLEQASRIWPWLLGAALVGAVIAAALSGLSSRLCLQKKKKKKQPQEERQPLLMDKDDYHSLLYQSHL
Experimental: Inhibition of Tyrosinase Activity Released from B16-F10 Cells
50,000 cells were placed in each well of a 24-well plate (in F10-Ham medium, 1% FBS). After 24 h of culture, the tested compounds were added in fresh medium (DMEM, 1% FBS), with an additional 5 μM of a-melanocorticotropic hormone (a-MSH) in the medium to induce melanogenesis. Three wells on the plate constituted a control sample without the melanogenesis inducer (a-MSH) and without the tested compounds. After 24 hours of incubation under these conditions, the medium was removed and the cells were washed twice with PBS. 100 μL of lysis buffer composed of 90 μL of 50 mM potassium phosphate buffer, 5 μL of 0.1 mM phenylmethylsulfonyl fluoride and 5 μL of 1% Triton X-100 were added to the wells. The plates were placed at −80° C. for 30 minutes. Cell lysates were then centrifuged for 30 min (4° C., 12,000 rpm), and then 80 μL of the supernatant was transferred to 96-well plates. […] After a 30-minute incubation, the absorbance was measured at 475 nm using a microplate reader. The percentage of inhibition of tyrosinase activity was calculated using the formula: [(AC−AT)/Ac]×100, where AC—is the absorbance of the negative control (from wells in which cells were cultured without the tested compounds), AT—is the absorbance of the sample from wells in which cells were cultured in the presence of the test compound.

[2] = test system: human reconstructed epidermis Episkin; assay: Skin permeation studies in reconstructed human epidermis Episkin; assay type: in vitro ADME
Experimental: The tested substance A-111 in a macrogol formulation (2% A-111 in the PEG400+PEG800 base) was applied onto the epidermis in an amount of approximately 10 mg/cm^2 (“finite dose application”) using a sterile inoculation loop. The amount applied was weighed accurately. As a control, a macrogol formulation without the test substance was applied onto the epidermis. The finished experimental plate was incubated at 32° C. At specific time intervals, aliquots of the receptor fluid (0.5 mL) were collected for the analysis and replaced with 0.5 mL of fresh receptor fluid. After 24 h of culture, all of the receptor fluid was collected. The examined tissue was washed with cotton buds soaked in methanol. The donor and receptor compartments were washed with methanol, and the epidermis was separated from the inserts and transferred to methanol. Samples were stored at −20° C. until analysis. The content (concentration) of the tested substance A-111 in the receptor fluid and in individual compartments: on the surface of the epidermis, in the epidermis, in the receptor fluid was determined using measurements in a microplate reader at 281 nm on 96-well plates transmitting ultraviolet radiation.
In order to confirm proper bioavailability, studies of the permeation of compound A-111 from a solution in PEG400 were performed in a model of reconstructed human epidermis. […] The tested substance A-111 was applied onto the epidermis in the form of a 2% PEG400 solution in an amount of 15 μL. The finished experimental plate was incubated at 32° C. At specific time intervals, aliquots of the receptor fluid (0.5 mL) were collected for the analysis and replaced with fresh fluid. After 24 h of culture, all of the receptor fluid was collected. The examined tissue was washed with cotton buds soaked in methanol. The donor and receptor compartments were washed with methanol, and the epidermis was separated from the inserts and transferred to methanol. The content (concentration) of the tested substance A-111 in the acceptor fluid and in individual compartments: on the surface of the epidermis, in the epidermis, in the receptor fluid was determined using measurements in a microplate reader at 281 nm on 96-well plates transmitting ultraviolet radiation.
Permeation studies of the A-111 compound from a cosmetic formulation were performed in a model of reconstructed human epidermis. […] 25 μL of the formulation containing the tested compound A-111 was applied to the epidermis. […] The content (concentration) of the tested substance A-111 in the receptor fluid and in individual compartments: on the surface of the epidermis, in the epidermis, in the receptor fluid was determined using measurements in a microplate reader at 281 nm on 96-well plates transmitting ultraviolet radiation.

Structure (SMILES): O=C(/C=C/c1ccc(Cl)cc1)NCCCCCO [Compound A-111, (2E)-3-(4-chlorophenyl)-N-(5-hydroxypentyl)prop-2-enamide]
- inhibition of tyrosinase released from B16-F10 cells [1]: inhibit the activity of tyrosinase released from B16-F10 cells
- epidermal permeation ([2]; 2% A-111 in macrogol formulation (PEG400+PEG800), about 10 mg/cm^2, 24 h): crosses the epidermal barrier
- accumulation in the epidermis ([2]; 2% A-111 in macrogol formulation, 24 h): no accumulation
- epidermal permeation ([2]; 2% PEG400 solution, 15 μL, 24 h): crosses the epidermal barrier
- epidermal permeation ([2]; released from cosmetic formulation, 25 μL, 24 h): crosses the epidermal barrier
